The results in this text go back to patent publication US12201690B2, “Formulations/compositions comprising ibrutinib” (Janssen Pharmaceutica NV, priority 2018, dated 2025).

Data set [1] can be described thus: 1M ASAP (Accelerated Stability Assessment Program) stability study. The following applies: samples stored for 1 month at 60° C. It is filed as physicochemical. The protocol: The new 25 concepts were screened in a 1M ASAP (Accelerated Stability Assessment Program) stability study (5, 40 and 60° C. storage conditions), in a 6M lab stability study and in PET tests.
The Results of the 6-Month (6M) Lab Stability

A short description of data set [2]: Microscope search for new needle-shaped (co-)crystals in stored/stressed suspensions. The conditions noted are these: benzyl alcohol as preservative. Type of data set: physicochemical. An excerpt:
As consequence of the increased paraben concentration, a crystallization issue has been observed with the suspension Composition 2 after a few months in stability at different storage conditions. […] By IR, Raman and MS analysis, the new needle crystals are characterized as potentially being co-crystals of the API and Parabens.
Between the acceptable concepts 13 to 20, after 6M storage in cyclic conditions, only in the concept containing benzoic acid as an incipient was new crystallization observed. The other samples were stable. • All concepts were physically stressed by rolling.
All suspension concepts were rolled into a glass vial, closed with a child resistant stopper, at room temperature, horizontally, at a speed of 25 rpm, for 1M. […] Between these concepts, only concepts 18, 19 and 20 were stable.
Some concepts were spiked to try to induce a rapid co-crystallization. Concepts containing Methyl and Ethyl paraben, were spiked with few granules of powder of co-crystals of API/Methyl Paraben and API/Et Paraben.

In the case of `C/C=C/C=C/C(=O)O` [Sorbic acid], the “reduction in preservative assay” value in data set [1] is listed as “about 15%”.
For the compound `O=C(O)c1ccccc1` [benzoic acid], in data set [1], the “reduction in preservative assay” value is given as “about 5%”.
`OCc1ccccc1` [benzyl alcohol]: in data set [1], the “reduction in preservative assay” value was 1%. Also, the “(co-)crystallization” value in data set [2] is reported as “not observed”.
